How the values were obtained:
[1] = tested on: Human GEO colon carcinoma xenografts; settings: known from earlier work; cited from earlier work
[2] = tested on: Human L2987 lung carcinoma xenografts; test: Antitumor testing versus s.c. L2987 lung carcinoma xenografts in nude mice; assay type: in vivo; settings: for T-C: tumor target 1.0 g
Procedure: (§1) Compounds. The oral taxane (Ia) was synthesized by Bristol-Myers Squibb (BMS) chemists. The compound was dissolved initially in equal portions of Cremophor EL and ethanol, followed by aqueous dilution to yield final ethanol and Cremophor EL concentrations of 10%.
(§2) Animals. Athymic (“nude”) mice, 5–6 weeks of age, purchased from Harlan Sprague Dawley (Indianapolis, Ind.), were quarantined for ˜2 weeks before their use for tumor propagation and drug efficacy testing. They were fed food and water ad libitum. All studies involving these animals were conducted in accordance with NIH (Bethesda, Md.) and Bristol Myers-Squibb animal care and use guidelines.
(§3) Tumors. Human L2987 lung and GEO colon carcinomas were maintained in nude mice by serial s.c. passage. All efficacy testing involved tumors implanted s.c. in nude mice.
(§4) Antitumor Testing. A detailed description of the methods used to assess antitumor effects has been provided previously in Rose, W. C., Fairchild, C., and Lee, F. Y. F. Preclinical antitumor activity of two novel taxanes. Cancer Chemother. Pharmacol. 47: 97–105, 2001. […] Delays in tumor growth are also converted to log cell kill (LCK) values by methods described in the same article. Statistical evaluations of data were performed using Gehan's generalized Wilcoxon test for comparisons of time to reach tumor target size. Statistical significance was declared at P<0.05. Group sizes typically consisted of eight mice. Activity was defined as ≧1 LCK.
(§5) Definitions of MTD and OD have been published previously in the above-noted article. Therapeutic results were reported at the OD, i.e., that yielding the best effect without exceeding the MTD. Therapeutic synergy represents a therapeutic effect achieved with a tolerated regimen of a combination treatment that exceeds the optimal effect achieved at any tolerated dose of monotherapy associated with the same drugs used in the combination. Cured mice are defined as those whose tumors are ≦35 mg when assessed 10 tumor volume doubling times (based on control tumor growth between 500 mg and 1 g) post-termination of treatment. A regimen was described as “toxic” if more than one mouse died during or within 10 days following the final drug treatment, or anytime after the initiation of drug therapy whose tumor size at the time of death was below 1 g.

[3] = Phase I clinical trial, weekly schedule of administration; assay type: in vivo, human
Text: The preclinical activity of Compound Ia was observed using several different schedules, with an intermittent administration regimen being optimal in one carefully examined tumor model. […] Heavily pretreated patients, typically having received two or three prior chemo/radiotherapies, have responded to weekly Compound Ia. All but one of the several responding patients had NSCLC, and all but one of these had previously received either a parenteral taxane or a small molecule anti-EGFR compound, gefitinib, or both. The purpose of our current investigations was to evaluate this oral taxane versus preclinical human tumor models using a multiple administration treatment regimen, in combination with an inhibitor of EGFR.

[4] = Tolerability (body weight change, deaths, MTD) in nude mice bearing L2987 tumors; assay type: in vivo
Procedure: as §1, §2, §5

[5] = tested on: Human GEO colon carcinoma xenografts; test: Antitumor testing versus s.c. GEO colon carcinoma xenografts in nude mice; assay type: in vivo; design: key: Treatment resulting in more than one death is described as “TOX” (i.e., toxic); settings: q3dx6 from Day 11
Procedure: as §1, §2, §3, §4, §5

[6] = Tolerability (body weight change, deaths, MTD) in nude mice bearing GEO tumors; assay type: in vivo
Procedure: as §1, §2, §5

[7] = confirmatory study, q3dx6 from Day 20, Compound Ia 40 mg/kg/adm p.o.
[8] = confirmatory study, q3dx6 from Day 20, Compound Ia 60 mg/kg/adm p.o.
[9] = pilot study, q3dx4 from Day 22, Compound Ia 40 mg/kg/adm p.o.
[10] = pilot study, q3dx4 from Day 22, Compound Ia 60 mg/kg/adm p.o.

COc1cc2ncnc(Nc3ccc(F)c(Cl)c3)c2cc1OCCCN1CCOCC1 [gefitinib]
Responsiveness of the GEO tumor model [1]: responsive

COC(=O)OC12COC1CC(O)C1(C)C(=O)C(OC(C)=O)C3=C(C)C(OC(=O)C(O)C(NC(=O)OC(C)(C)C)C(C)(C)C)CC(O)(C(OC(=O)c4ccccc4)C21)C3(C)C (centres unmarked) [Compound Ia]
LCK (log cell kill) [2, 7]: 0.5
T-C [2, 7]: 14.5 days
LCK (log cell kill) [2, 8]: 1.0
T-C [2, 8]: 28.0 days
LCK (log cell kill) [2, 9]: 0.2
T-C [2, 9]: 5.5 days
LCK (log cell kill) [2, 10]: 0.6
T-C [2, 10]: 14.0 days
Clinical toxicity [3]: manageable toxicity
Average body weight change [4, 7]: 1.5 g
Average body weight change [4, 8]: -0.9 g
MTD, cumulative exposure ([4]; confirmatory study, 60 mg/kg/adm p.o. q3dx6, tolerated with minimal body weight loss): 360 mg/kg
historical MTD, cumulative exposure ([4]; p.o., established using a schedule similar to q3dx4): approximately 300 mg/kg
Average body weight change [4, 9]: 0.7 g
Average body weight change [4, 10]: 1.0 g
LCK (log cell kill) ([5]; Compound Ia 40 mg/kg/adm p.o.): 0.3
T-C ([5]; Compound Ia 40 mg/kg/adm p.o., tumor target 1.0 g): 4.0 days
LCK (log cell kill) ([5]; Compound Ia 60 mg/kg/adm p.o.): 0.7
T-C ([5]; Compound Ia 60 mg/kg/adm p.o., tumor target 1.0 g): 10.0 days
LCK (log cell kill) ([5]; Compound Ia 90 mg/kg/adm p.o.): TOX
T-C ([5]; Compound Ia 90 mg/kg/adm p.o.): TOX
MTD ([6]; p.o., q3dx6): 60 mg/kg/adm
Average body weight change ([6]; q3dx6 from Day 11, Compound Ia 40 mg/kg/adm p.o.): -2.6 g
Average body weight change ([6]; q3dx6 from Day 11, Compound Ia 60 mg/kg/adm p.o.): -1.8 g
dead/total ([6]; q3dx6 from Day 11, Compound Ia 90 mg/kg/adm p.o.): (3/8)

Source: patent US7132554B2, “Therapeutic synergy of anti-cancer compounds” (Bristol-Myers Squibb Company, priority 2004, dated 2006)
